Measured values from article PMC11252457 (Acta Pharmaceutica Sinica. B, 2024).

Tests used:
[1] = tested on: HIV-1 mutant strain K103N; assay: microbe, parasite or virus in culture; format: cell-based; details: Human immunodeficiency virus 1, MT4, read-out: EC50 K103N
[2] = tested on: HIV-1 mutant strain L100I; assay: microbe, parasite or virus in culture; format: cell-based; details: Human immunodeficiency virus 1, MT4, read-out: EC50 L100I
[3] = tested on: HIV-1 mutant strain Y181C; assay: microbe, parasite or virus in culture; format: cell-based; details: Human immunodeficiency virus 1, MT4, read-out: EC50 Y181C
WT HIV-1 (IIIB) = assay: microbe, parasite or virus in culture; format: cell-based; details: for EC50: Human immunodeficiency virus 1, IIIB, MT4, read-out: EC50 IIIB; for SI IIIB: ratio of CC50/EC50, IIIB
recombinant WT HIV-1 RT = recombinant WT HIV-1 RT (Human immunodeficiency virus type 1 group M subtype B, UniProt P03366); assay: HIV-1 RT inhibition assay; format: biochemical
[4] = Cytotoxicity in mock-infected MT-4 cells; details: human
[5] = tested on: HIV-1 mutant strain E138K; assay: microbe, parasite or virus in culture; format: cell-based; details: Human immunodeficiency virus 1, MT4, read-out: EC50 E138K
[6] = tested on: HIV-1 mutant strain Y188L; assay: microbe, parasite or virus in culture; format: cell-based; details: Human immunodeficiency virus 1, MT4, read-out: EC50 Y188L
[7] = tested on: HIV-1 RES056 (K103N/Y181C); assay: microbe, parasite or virus in culture; format: cell-based; details: for EC50: Human immunodeficiency virus 1, MT4, read-out: EC50 RES056; for SI RES056: ratio of CC50/EC50, RES056
[8] = tested on: HIV-1 double mutant strain F227L/V106A; assay: microbe, parasite or virus in culture; format: cell-based; details: Human immunodeficiency virus 1, MT4, read-out: EC50 F227L/V106A

| Compound | EC50 [1] | EC50 [2] | EC50 [3] | EC50 (WT HIV-1 (IIIB)) | SI IIIB (WT HIV-1 (IIIB)) | IC50 (recombinant WT HIV-1 RT) | CC50 at 5 days [4] | EC50 [5] | EC50 [6] | EC50 [7] | SI RES056 [7] | EC50 [8] |
| --- | --- | --- | --- | --- | --- | --- | --- | --- | --- | --- | --- | --- |
| Cc1cc(C#N)cc(C)c1Oc1nc(NC2CCN(Cc3ccc(P(C)(C)=O)cc3)CC2)nc2ccsc12 [9a, 4-((2-((1-(4-(Dimethylphosphoryl)benzyl)piperidin-4-yl)amino)thieno[3,2-d]pyrimidin-4-yl)oxy)-3,5-dimethylbenzonitrile] | 2.66 ± 0.85 nM | 7.01 ± 1.76 nM | 12.8 ± 2.62 nM | 2.2 ± 0.33 nM | 97,727 | 310 ± 10 nM | 215000 ± 1170 nM | 7.33 ± 1.36 nM | 11.3 ± 0.87 nM | 257 ± 95.2 nM | 837 | 21.5 ± 13.5 nM |
| CCCCOP(=O)(OCCCC)c1ccc(CN2CCC(Nc3nc(Oc4c(C)cc(C#N)cc4C)c4sccc4n3)CC2)cc1 [9d, Dibutyl (4-((4-((4-(4-cyano-2,6-dimethylphenoxy)thieno[3,2-d]pyrimidin-2-yl)amino)piperidin-1-yl)methyl)phenyl)phosphonate] | 196 ± 13.6 nM | 230 ± 54 nM | 311 ± 50.4 nM | 125 ± 39 nM | 62 | – | 7800 ± 1530 nM | 241 ± 34.9 nM | 240 ± 58.3 nM | 6500 ± 483 nM | 1 | 248 ± 37.3 nM |
| Cc1cc(C#N)cc(C)c1Oc1nc(NC2CCN(Cc3ccc(P(=O)(OCC(F)(F)F)OCC(F)(F)F)cc3)CC2)nc2ccsc12 [9e, Bis(2,2,2-trifluoroethyl) (4-((4-((4-(4-cyano-2,6-dimethylphenoxy)thieno[3,2-d]pyrimidin-2-yl)amino)piperidin-1-yl)methyl)phenyl)phosphonate] | 45.8 ± 4.61 nM | 165 ± 111 nM | 248 ± 60.4 nM | 33 ± 7.63 nM | 527 | – | 17400 ± 2850 nM | 137 ± 83 nM | 142 ± 63.3 nM | 1300 ± 120 nM | 13 | 65.1 ± 19.5 nM |
| Cc1cc(C#N)cc(C)c1Oc1nc(NC2CCN(Cc3ccc(P(=O)(OC(C)C)OC(C)C)cc3)CC2)nc2ccsc12 [9f, Diisopropyl (4-((4-((4-(4-cyano-2,6-dimethylphenoxy)thieno[3,2-d]pyrimidin-2-yl)amino)piperidin-1-yl)methyl)phenyl)phosphonate] | 22.6 ± 7.83 nM | 29.5 ± 14.2 nM | 73.5 ± 69.4 nM | 24.8 ± 14.8 nM | 4476 | – | 111000 ± 33600 nM | 41.3 ± 15.3 nM | 42 ± 11.7 nM | 514 ± 57.1 nM | 216 | 28.4 ± 13.4 nM |
| Cc1cc(C#N)cc(C)c1Oc1nc(NC2CCN(Cc3ccc(P(=O)(OC(C)(C)C)OC(C)(C)C)cc3)CC2)nc2ccsc12 [9g, Di-tert-butyl (4-((4-((4-(4-cyano-2,6-dimethylphenoxy)thieno[3,2-d]pyrimidin-2-yl)amino)piperidin-1-yl)methyl)phenyl)phosphonate] | 124 ± 26.2 nM | 310 ± 57.8 nM | 719 ± 263 nM | 99.3 ± 37 nM | 164 | – | 16300 ± 4280 nM | 179 ± 19.8 nM | 445 ± 157 nM | > 16300 nM | <1 | 637 ± 492 nM |
| Cc1cc(C#N)cc(C)c1Oc1nc(NC2CCN(Cc3ccc(P(=O)(OCC(C)C)OCC(C)C)cc3)CC2)nc2ccsc12 [9h, Diisobutyl (4-((4-((4-(4-cyano-2,6-dimethylphenoxy)thieno[3,2-d]pyrimidin-2-yl)amino)piperidin-1-yl)methyl)phenyl)phosphonate] | 53.3 ± 19 nM | 135 ± 28.4 nM | 182 ± 40.5 nM | 90.9 ± 50.8 nM | 97 | – | 8780 ± 9120 nM | 124 ± 31.4 nM | 174 ± 94.9 nM | 13200 nM | 1 | 104 ± 53.1 nM |
| COP(=O)(OC)c1ccc(CN2CCC(Nc3nc(Oc4c(C)cc(/C=C/C#N)cc4C)c4sccc4n3)CC2)cc1 [15b, Dimethyl (E)-(4-((4-((4-(4-(2-cyanovinyl)-2,6-dimethylphenoxy)thieno[3,2-d]pyrimidin-2-yl)amino)piperidin-1-yl)methyl)phenyl)phosphonate] | 13 ± 3.8 nM | 85.7 ± 28 nM | 193 ± 74.8 nM | 19.1 ± 13.9 nM | 1827 | – | 34900 ± 2860 nM | 64.5 ± 31.7 nM | 478 ± 158 nM | 603 ± 139 nM | 58 | 129 ± 83.3 nM |
| CCOP(=O)(OCC)c1ccc(CN2CCC(Nc3nc(Oc4c(C)cc(/C=C/C#N)cc4C)c4sccc4n3)CC2)cc1 [15c, Diethyl (E)-(4-((4-((4-(4-(2-cyanovinyl)-2,6-dimethylphenoxy)thieno[3,2-d]pyrimidin-2-yl)amino)piperidin-1-yl)methyl)phenyl)phosphonate] | 15.5 ± 1.21 nM | 20.1 ± 10.8 nM | 44.1 ± 25.6 nM | 26.4 ± 15.1 nM | 309 | – | 8150 ± 640 nM | 56.6 ± 19.1 nM | 62.4 ± 22.7 nM | 110 ± 27.2 nM | 74 | 27.1 ± 10.7 nM |
| CCCCOP(=O)(OCCCC)c1ccc(CN2CCC(Nc3nc(Oc4c(C)cc(/C=C/C#N)cc4C)c4sccc4n3)CC2)cc1 [15d, Dibutyl (E)-(4-((4-((4-(4-(2-cyanovinyl)-2,6-dimethylphenoxy)thieno[3,2-d]pyrimidin-2-yl)amino)piperidin-1-yl)methyl)phenyl)phosphonate] | 188 ± 17 nM | 265 ± 84.4 nM | 779 ± 316 nM | 173 ± 54 nM | 71 | – | 12200 ± 3910 nM | 678 ± 196 nM | 714 ± 157 nM | 1430 ± 173 nM | 9 | 495 ± 168 nM |
| Cc1cc(/C=C/C#N)cc(C)c1Oc1nc(NC2CCN(Cc3ccc(P(=O)(OCC(F)(F)F)OCC(F)(F)F)cc3)CC2)nc2ccsc12 [15e, Bis(2,2,2-trifluoroethyl) (E)-(4-((4-((4-(4-(2-cyanovinyl)-2,6-dimethylphenoxy)thieno[3,2-d]pyrimidin-2-yl)amino)piperidin-1-yl)methyl)phenyl)phosphonate] | 139 ± 65.7 nM | 140 ± 50.5 nM | 584 ± 272 nM | 138 ± 55.8 nM | 113 | – | 15600 ± 2670 nM | 423 ± 149 nM | 497 ± 49.2 nM | 747 ± 242 nM | 21 | 338 ± 37.1 nM |
| Cc1cc(/C=C/C#N)cc(C)c1Oc1nc(NC2CCN(Cc3ccc(P(=O)(OC(C)C)OC(C)C)cc3)CC2)nc2ccsc12 [15f, Diisopropyl (E)-(4-((4-((4-(4-(2-cyanovinyl)-2,6-dimethylphenoxy)thieno[3,2-d]pyrimidin-2-yl)amino)piperidin-1-yl)methyl)phenyl)phosphonate] | 41 ± 7.63 nM | 56.1 ± 13.2 nM | 156 ± 59 nM | 29.2 ± 9.12 nM | 152 | – | 4450 ± 570 nM | 162 ± 35.8 nM | 195 ± 32.3 nM | 401 ± 321 nM | 11 | 79.3 ± 13 nM |
| Cc1cc(/C=C/C#N)cc(C)c1Oc1nc(NC2CCN(Cc3ccc(P(=O)(OC(C)(C)C)OC(C)(C)C)cc3)CC2)nc2ccsc12 [15g, Di-tert-butyl (E)-(4-((4-((4-(4-(2-cyanovinyl)-2,6-dimethylphenoxy)thieno[3,2-d]pyrimidin-2-yl)amino)piperidin-1-yl)methyl)phenyl)phosphonate] | 16.9 ± 7.68 nM | 25.8 ± 15.8 nM | 46.4 ± 7.56 nM | 20.6 ± 8.31 nM | 359 | – | 7400 ± 2250 nM | 59.7 ± 13.1 nM | 55.3 ± 22.2 nM | 197 ± 30.5 nM | 38 | 43.7 ± 7.52 nM |
| Cc1cc(/C=C/C#N)cc(C)c1Oc1nc(NC2CCN(Cc3ccc(P(=O)(OCC(C)C)OCC(C)C)cc3)CC2)nc2ccsc12 [15h, Diisobutyl (E)-(4-((4-((4-(4-(2-cyanovinyl)-2,6-dimethylphenoxy)thieno[3,2-d]pyrimidin-2-yl)amino)piperidin-1-yl)methyl)phenyl)phosphonate] | 239 ± 27 nM | 712 ± 158 nM | 1120 ± 106 nM | 151 ± 48.4 nM | 109 | – | 16500 ± 2050 nM | 758 ± 249 nM | 860 ± 218 nM | 2200 ± 360 nM | 8 | 886 ± 167 nM |
| Cc1cc(C#N)cc(C)c1Oc1nc(NC2CCN(Cc3ccc(P(=O)(O)O)cc3)CC2)nc2ccsc12 [compound 10, (4-((4-((4-(4-Cyano-2,6-dimethylphenoxy)thieno[3,2-d]pyrimidin-2-yl)amino)piperidin-1-yl)methyl)phenyl)phosphonic acid] | 147000 nM | > 227000 nM | > 227000 nM | 16500 nM | >14 | – | > 227000 nM | 160000 nM | > 227000 nM | > 227000 nM | <1 | > 227000 nM |
| Cc1cc(/C=C/C#N)cc(C)c1Oc1nc(NC2CCN(Cc3ccc(P(=O)(O)O)cc3)CC2)nc2ccsc12 [compound 16, (E)-(4-((4-((4-(4-(2-Cyanovinyl)-2,6-dimethylphenoxy)thieno[3,2-d]pyrimidin-2-yl)amino)piperidin-1-yl)methyl)phenyl)phosphonic acid] | 6270 ± 1900 nM | 13600 nM | 30400 nM | 3810 ± 1520 nM | >57 | – | > 217000 nM | 19100 nM | 133000 nM | 170000 nM | >1 | 43500 nM |
